Test results from patent US12509446B2, “FYN and VEGFR2 kinase inhibitors” (ROTTAPHARM BIOTECH S.R.L., priority 2019, dated 2025).

What was measured:
MMP3 = experiment: Gene expression in rat articular chondrocytes under IL-1β stimulation, MMP3; format: cell-based; design: key to MMP3 gene expression, no effect: ne: no effect; settings: 24 h
Procedure: (§1) For gene expression analysis, 10 days after plating, the medium was changed and substituted with DMEM GlutaMAX I 0.4% to synchronize the cells. The cells were then co-treated in DMEM GlutaMAX I 0.4% with different concentrations of the test compounds and […] at a final concentration of 2 ng/ml for 6 h and 24 h. The test compound concentrations used have been chosen on the basis of the toxicity data.
(§2) At the end of the incubation, the supernatant was discarded, the cell were washed with cold PBS1X and scraped with 200 μl of RNA lysis buffer 1X (Nucleic Acid Purification Lysis Solution, Applied Biosystems).
(§3) Total RNA was purified using ABI Prism™ 6100 Nucleic Acid PrepStation (Applied Biosystems) following manufacturer's instructions.
(§4) Total RNA was retrotranscribed using the High-Capacity cDNA Archive Kit (Applied Biosystems-Thermo Fisher Scientific) following manufacturer's instructions.
(§5) The specific probes and primers for RealTime PCR were from Applied Biosystems (Thermo Fisher Scientific) as Assays-on-Demand™, while the probe and primers for the endogenous control 18S was a PDAR (Pre-Developed TaqMan® Assay Reagents—Applied Biosystems-Thermo Fisher Scientific).
(§6) The assays were designed to amplify target cDNA without amplifying genomic DNA.
(§7) Gene expression analysis for IL-1β, IL-6 and ADAMTS-5 were performed at 6 h incubation, while the gene expression analysis for MMP3, MMP13 and COX2 were performed at 24 h incubation.
(§8) For each compound the maximal concentration tested was dependent on the toxicity results obtained on primary rat chondrocytes.
(§9) The data analysis, with the normalisation on the amplified values for the 18S was done following the specific instruction of Applied Biosystems for the relative quantification of gene expression.

[1] = system: bovine nasal septum cartilage; experiment: Inhibition of cartilage degradation (GAG release) induced by IL-1α in a bovine in vitro model; format: cell-based; design: key to Bovine cartilage degradation induced by IL-1α, no effect: ne: no effect
Procedure: Nasal septum cartilage was collected from an eight months-old male bovine in a local slaughterhouse.
Tissue was sprayed with ethanol 70% and immediately put in sterile PBS with Antibiotic-Antimycotic stabilized solution (PBS-AASS). It was cut in order to obtain small punches (diameter 2 mm, 1 mm-thick). washed with sterile PBS-AASS, the slices were transferred in a 96X well plate (one piece per well) in DMEM 10%+AASS. 48 h later the cartilage was stimulated in white DMEM+0.1% BSA+AASS with IL-1α […] in the absence or presence of the studied compounds.
The compounds concentration used in this analysis was chosen depending on the toxicity results obtained in rat primary chondrocytes at 48 h of incubation.
After 48 h stimulation, the culture medium was collected and stored at −80° C. The cartilage punches were digested with papain at 65° C. for 2 h in phosphate buffer (0.05M pH 6.5 with 2 mM N-acetil-L-cisteine and 2 mM EDTA).
The glycosaminoglycan (GAG) determination was done by a colorimetric assay with 1,9 dimethyl methylene blue (DMB).
Digested cartilage samples were diluted in PBS-BSA 1%. To 100 μl of diluted samples or standard we added 100 μl DMB 2X. After 5-20 min incubation the samples were read at 590 nm (Titertek Multiscan Plus).
The cartilage degradation induced by IL-1α was expressed as: GAG (medium)/total GAG (medium+cartilage)×100

IL-1β = experiment: Gene expression in rat articular chondrocytes under IL-1β stimulation, IL-1β; format: cell-based; settings: for IC50: Rattus norvegicus, Chondrocyte, 6 h incubation
Procedure: as §1, §2, §3, §4, §5, §6, §7, §8, §9

MMP13 = experiment: Gene expression in rat articular chondrocytes under IL-1β stimulation, MMP13; format: cell-based; design: key to MMP13 gene expression, no effect: ne: no effect; settings: 24 h; for MMP13 gene expression, percentage of inhibitory effect at the highest non toxic concentration: 10 μM
Procedure: as §1, §2, §3, §4, §5, §6, §7, §8, §9

IL-6 = experiment: Gene expression in rat articular chondrocytes under IL-1β stimulation, IL-6; format: cell-based; settings: for IC50: Rattus norvegicus, Chondrocyte, 6 h incubation
Procedure: as §1, §2, §3, §4, §5, §6, §7, §8, §9

NF-kB = experiment: Gene reporter (GR) assay, NF-kB activation after TNFα in JB6 Cl 41-5a (P+) cells; format: cell-based, murine; settings: Mus musculus, JB6 Cl 41-5a, TNFα 2 ng/ml, non toxic concentrations; read-out: Gene reporter (GR) inhibition IC50
From the text: To determine if the compounds of the invention were active also in a cellular model, a gene reporter assay was established in a cell line (JB6 Cl 41-5a (P+)) know to activate Fyn kinase via an inflammatory stimuli (TNFα). GR assay measures the activation of the nuclear transcription factor NF-kB, situated down-stream the Fyn activation pathway. Products active in this analysis has to penetrate in the cell and inhibit the activation pathway of NF-kB.
The murine epithelial cell line JB6 Cl 41-5a (P+) (ATCC® Cat. #CRL-2010) was stably transfected with the pGL4.32[luc2P/NFkB-RE/Hygro] vector (Promega). Clonal selection was achieved by limiting with 80 μg/ml Hygromycin B. The clones were tested for their response to TNFα stimulus.
JB6(P+) NFkB-RE-luc2P transfected cells were used for the analysis of NF-kB activity modulation, after TNFα stimulation, by Fyn-inhibitors.
Cells were pre-treated with the different compounds for 1 h and then stimulated with 2 ng/ml TNFα for 4 h. Each tested condition was analyzed in quadruplicate.
The luciferase analysis was performed with ONE-Glo™+ToxLuciferase Reporter and Cell Viability Assay kit (Promega).

[2] = system: rat primary articular chondrocytes; experiment: Toxicity analysis (MTT) in rat primary chondrocytes; settings: for First toxic concentration at 24 h: rat primary chondrocytes
Procedure: Purified chondrocytes were resuspended in DMEM glutaMAX 10% and plated in a 96X well plate for toxicity analysis and in a 6X well plate for gene expression analysis.
For toxicity analysis cells were then treated with the different compounds for 24 and 48 h. At the end of the incubation time, the medium was removed and was substituted with a mixture 10:1 of DMEM glutaMAX 10%—MTT (2 mg/ml) for 1 h at 37° C. in the cell incubator. After this incubation, the precipitated salt was dissolved with 100 μl of DMSO and the plate was read at 540 nm. The toxicity analysis were performed to decide the maximal non toxic concentration of each compound used in the gene expression assay.

VEGFR2 = VEGFR2 (Homo sapiens (Human), UniProt P35968); experiment: In vitro VEGFR2 kinase activity assay (Eurofins Cerep); format: biochemical; settings: read-out: VEGFR2 KINASE INHIBITION IC50
Procedure: The VEGFR2 kinase inhibitory activity of representative examples of compounds of Formula (I) assays was evaluated in Eurofins Cerep (France). The concentration range of the inhibitors under investigation was from 10^−8 M up to 10^−5 M final concentration. Some compounds were re-tested in a concentration-range starting from 10^−9 M. The results are expressed as a percent of control activity (in the absence of test compound) and the IC50 values were determined by non-linear regression analysis of the inhibition/concentration curves generated with mean replicate values.

Fyn = Fyn (Homo sapiens (Human), UniProt P06241); experiment: Z′-LYTE in vitro Fyn kinase activity assay; format: biochemical; settings: ATP 50 μM; read-out: FYN KINASE INHIBITION IC50
Procedure: The Fyn kinase inhibitory activity of representative examples of compounds of Formula (1) was evaluated by Z′-LYTE™ Kinase Assay Platform (Invitrogen). Compounds were evaluated towards active Fyn (full length active, molecular weight 87.1 kDa; Invitrogen). […] Samples representing the 0% inhibition (or total enzymatic activity) were in the presence of compound diluent (1% DMSO final in Reaction Buffer 50 mMHepes, 10 mM MgCl2, 1 mM EGTA, 0.01% Brij-35, pH 7.5). The kinase reaction was carried out in a total volume of 10 μl, for 60 minutes at 25° C. The 0% Phosphorylation (i.e. no ATP) and 100% Phosphorylation Assay Controls, included in each plate, allowed to calculate the percent phosphorylation achieved in the specific reaction well. Results are expressed as percentage of inhibition and the IC50 values were calculated by non-linear curve fitting using GraphPad™ Prism software (version 6 for Windows).

ADAMTS-5 = experiment: Gene expression in rat articular chondrocytes under IL-1β stimulation, ADAMTS-5; format: cell-based; settings: 6 h
Procedure: as §1, §2, §3, §4, §5, §6, §7, §8, §9

COX2 = experiment: Gene expression in rat articular chondrocytes under IL-1β stimulation, COX2; format: cell-based; design: key to COX2 gene expression, no effect: ne: no effect; settings: 24 h; for COX2 gene expression, percentage of inhibitory effect at the highest non toxic concentration: 10 μM

Sequence of Fyn (P06241 whole entry): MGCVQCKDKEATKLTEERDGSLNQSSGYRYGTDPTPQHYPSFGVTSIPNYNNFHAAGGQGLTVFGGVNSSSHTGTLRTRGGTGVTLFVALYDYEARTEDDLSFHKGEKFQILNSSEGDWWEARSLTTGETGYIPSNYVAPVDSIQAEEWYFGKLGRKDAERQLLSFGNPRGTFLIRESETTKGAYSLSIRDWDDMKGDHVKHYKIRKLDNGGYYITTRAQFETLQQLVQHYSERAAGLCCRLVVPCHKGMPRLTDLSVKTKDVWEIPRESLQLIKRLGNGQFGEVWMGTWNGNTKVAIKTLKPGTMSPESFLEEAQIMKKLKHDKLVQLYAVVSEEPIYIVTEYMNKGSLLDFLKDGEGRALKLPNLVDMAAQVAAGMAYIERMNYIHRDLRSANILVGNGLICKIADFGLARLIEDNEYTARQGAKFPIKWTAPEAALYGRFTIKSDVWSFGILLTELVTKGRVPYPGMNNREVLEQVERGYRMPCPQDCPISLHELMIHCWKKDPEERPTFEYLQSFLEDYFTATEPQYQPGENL
Sequence of VEGFR2 (P35968 20-1356): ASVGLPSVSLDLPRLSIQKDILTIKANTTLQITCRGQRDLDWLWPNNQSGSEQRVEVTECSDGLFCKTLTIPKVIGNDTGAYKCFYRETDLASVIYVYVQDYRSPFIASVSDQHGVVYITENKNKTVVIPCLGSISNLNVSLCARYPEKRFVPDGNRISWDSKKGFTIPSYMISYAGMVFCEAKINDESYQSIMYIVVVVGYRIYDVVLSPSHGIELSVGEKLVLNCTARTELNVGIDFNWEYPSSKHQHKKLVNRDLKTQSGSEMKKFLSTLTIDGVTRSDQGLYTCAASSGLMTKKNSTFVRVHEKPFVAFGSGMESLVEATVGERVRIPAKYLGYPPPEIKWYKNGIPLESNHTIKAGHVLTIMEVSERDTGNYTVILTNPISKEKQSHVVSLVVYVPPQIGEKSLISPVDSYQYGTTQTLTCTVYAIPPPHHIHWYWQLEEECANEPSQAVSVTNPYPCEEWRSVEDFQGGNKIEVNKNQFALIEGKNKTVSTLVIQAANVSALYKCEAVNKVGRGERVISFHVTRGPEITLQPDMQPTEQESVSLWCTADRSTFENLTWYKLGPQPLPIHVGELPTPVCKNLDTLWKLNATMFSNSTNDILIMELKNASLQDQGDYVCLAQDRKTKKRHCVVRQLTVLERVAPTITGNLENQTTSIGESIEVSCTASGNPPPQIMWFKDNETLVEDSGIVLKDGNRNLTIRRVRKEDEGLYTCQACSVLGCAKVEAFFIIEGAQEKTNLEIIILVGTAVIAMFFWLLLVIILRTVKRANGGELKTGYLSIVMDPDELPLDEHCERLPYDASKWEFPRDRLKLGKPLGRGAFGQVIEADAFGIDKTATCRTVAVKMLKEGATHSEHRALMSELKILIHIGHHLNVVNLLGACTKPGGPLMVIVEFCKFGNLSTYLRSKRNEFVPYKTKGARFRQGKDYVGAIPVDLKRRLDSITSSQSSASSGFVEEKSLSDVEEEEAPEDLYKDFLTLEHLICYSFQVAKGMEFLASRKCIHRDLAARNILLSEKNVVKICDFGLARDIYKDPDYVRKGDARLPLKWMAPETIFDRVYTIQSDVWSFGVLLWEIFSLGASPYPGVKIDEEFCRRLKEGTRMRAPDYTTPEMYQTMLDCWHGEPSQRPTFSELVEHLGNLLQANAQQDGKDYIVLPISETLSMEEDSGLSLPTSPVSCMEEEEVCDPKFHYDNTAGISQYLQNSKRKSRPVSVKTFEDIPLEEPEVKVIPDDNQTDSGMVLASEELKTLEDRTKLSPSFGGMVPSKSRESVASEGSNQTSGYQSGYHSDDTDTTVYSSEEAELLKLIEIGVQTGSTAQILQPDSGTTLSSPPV

SMILES | MMP3 gene expression, no effect (MMP3) | Bovine cartilage degradation induced by IL-1α, no effect [1] | IC50 (IL-1β) [nM] | MMP13 gene expression, no effect (MMP13) | IC50 (IL-6) [nM] | IC50 (NF-kB) [nM] | First toxic concentration at 48 h in rat primary chondrocytes [2] [µM] | First toxic concentration at 24 h [2] [µM] | IC50 (VEGFR2) [nM] | IC50 (Fyn) [nM] | ADAMTS-5 gene expression, percentage of inhibitory effect at the highest non toxic concentration (ADAMTS-5; 1 μM) [μM 70%] | COX2 gene expression, no effect (COX2) | MMP3 gene expression, percentage of inhibitory effect at the highest non toxic concentration (MMP3; 10 μM) [μM 92%] | inhibition at 10 µM ([1]; Bos taurus, 10 μM, read-out: Bovine cartilage degradation induced by IL-1α, % inhibitory effect at max concentration) [%] | IL-1β gene expression, percentage of inhibitory effect at the highest non toxic concentration (IL-1β; 10 μM, 6 h) [μM 99%] | MMP13 gene expression, percentage of inhibitory effect at the highest non toxic concentration (MMP13) | IL-6 gene expression, percentage of inhibitory effect at the highest non toxic concentration (IL-6; 10 μM, 6 h) [μM 100%] | ADAMTS-5 gene expression, percentage of inhibitory effect at the highest non toxic concentration (ADAMTS-5; 10 μM) | COX2 gene expression, percentage of inhibitory effect at the highest non toxic concentration (COX2)
Cc1ccc(NC(=O)c2cccc(S(C)(=O)=O)c2)cc1CCc1cnc(Nc2cnccn2)s1 [Compound 48, N-(4-methyl-3-(2-(2-(pyrazin-2-ylamino)thiazol-5-yl)ethyl)phenyl)-3-(methylsulfonyl)benzamide] | ne | ne | 600 | ne | 200 | 275 | 3 | 3 | 10 | 27 | 1 | ne | – | – | – | – | – | – | –
CCN1Cc2cnc(Nc3cc(CCc4cc(NC(=O)c5cccc(C(F)(F)F)c5)ccc4C)n[nH]3)cc2C1 [Compound 17, N-(3-(2-(5-((2-ethyl-2,3-dihydro-1H-pyrrolo[3,4-c]pyridin-6-yl)amino)-1H-pyrazol-3-yl)ethyl)-4-methylphenyl) -3-(trifluoromethyl)benzamide] | – | – | – | – | – | 352 | >10 | >10 | < 10 | 8 | – | – | 10 | 100 | 10 | 10 μM 100% | 10 | 10 μM 62% | 10 μM 96%
CS(=O)(=O)c1cccc(C(=O)Nc2ccc(F)c(CCc3cc(Nc4cnccn4)[nH]n3)c2)c1 [Compound 12, N-(4-fluoro-3-(2-(5-(pyrazin-2-ylamino)-1H-pyrazol-3-yl)ethyl)phenyl)-3-(methylsulfonyl)benzamide] | ne | ne | 3900 | – | 2600 | 4510 | 10 | >10 | < 10 | 24 | – | – | – | – | – | 10 μM 34% | – | 10 μM 57% | 10 μM 63%
